Assay results: patent US7671054B1, “Reverse-turn mimetics and method relating thereto” (Choongwae Pharma Corporation, priority 2001, dated 2010)
Entries after “also recorded” stand apart in the source; their conditions may differ.

Legend:
SW480 cells [1] = assay: MTS cytotoxicity test; format: cell-based; details: Homo sapiens, Table 10, prodrug compounds, 24 hours treatment, read-out: MTS, SW480 (uM) LD50
Procedure: (§1) SW480 or HCT116 cells were placed into 96 well microplate (10^4cells/well) and incubated for 24 hours at 37° C. The cells were treated with TCF4 compound at various concentrations for 24 hours. 20 μl of MTS solution (Promega) was added into each well and incubated for 2 hours at 37° C. Cell viability was measured by reading the absorbance at 490 nm using microplate reader (Molecular Device) and cytotoxicity of a compound at each concentration was calculated.

HCT116 cells [2] = assay: MTS cytotoxicity test; format: cell-based; details: Homo sapiens, HCT-116, Table 10, prodrug compounds, 24 hours treatment, read-out: MTS, HCT116 (uM) LD50
Procedure: as §1

SW480 cells [3] = assay: Growth inhibition assay (MTS); format: cell-based; details: Homo sapiens; Table 10; prodrug compounds, SW480 cells, growth inhibition; read-out: MTS, SW480 (uM) GI50
How it was run: (§2)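 Cells seeded at 10^4 per well, grown 24 h at 37° C, then exposed to compound at various concentrations for 48 hours. MTS added for 2 h; absorbance at 490 nm gave viability, with cytotoxicity calculated per concentration against pre-treatment reading.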

HCT116 cells [4] = assay: Growth inhibition assay (MTS); format: cell-based; details: Homo sapiens, HCT-116; Table 10; prodrug compounds, HCT116 cells, growth inhibition; read-out: MTS, HCT116 (uM) GI50
How it was run: as §2

[5] = test system: survivin promoter in SW480 cells; assay: Survivin luciferase reporter in SW480 cells; format: cell-based; details: for IC50: Homo sapiens, SW480, Table 10, prodrug compounds, reporter gene assay Survivin, read-out: RGA, Survivin IC50
[6] = test system: TCF4/β-catenin transcription (TOPFlash) in SW480 cells; assay: Reporter gene assay (TOPFlash luciferase); format: cell-based; details: Homo sapiens, SW480, Table 10; prodrug compounds, reporter gene assay TopF; read-out: RGA, TopF IC50
How it was run: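 SW480 cells transiently co-transfected with TOPFlash and pRL-null (4:1 µg) using Superfect, then reseeded at 3×10^4 cells/well and incubated overnight at 37 °C. Compound treatment lasted 24 h before luciferase read-out.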

HUVEC = assay: Tube formation assay (In Vitro Angiogenesis Assay Kit); format: cell-based; details: 0.1-10 μM, 12 h
Procedure: Tube formation assay was performed using an In Vitro Angiogenesis Assay Kit (Chemicon International, Inc., Temecula, Calif., USA). Briefly, solid gels were prepared according to the manufacturer's manual on a 96-well tissue culture plate. HUVEC (1×10^5 cells/ml) in HuMedia EG-2 medium containing […] were seeded 100 μl per well onto the surface of the solid gel, ECMatrix™. The cells were incubated with vehicle control, Compound E at 0.1 μM, 0.3 μm, 1.0 μM, 3 μM, and 10 μM, or Fumagilin at 10 μM for 12 h at 37° C. in a CO2 incubator. Tube formation was observed under an inverted light microscope at ×100 magnification. Microscopic fields were photographed with a digital camera.

SW480 cells [7] = assay: Soft agar assay, Compound A with 5-FU; format: cell-based; details: for LD50, soft agar assay: 8 days
Procedure: Compound A solution and upper layer solution containing agarose were mixed, and SW480 cells were added and solidified. Plates were incubated 37° C. at CO2 incubator for 8 days after solidification at room temperature for 30 min, and colonies were counted under microscope (FIG. 19).

[8] = test system: min mice (polyp formed in small intestine and colon); assay: Min mouse model; format: in vivo; details: about 300 mpk
Procedure: Selected compounds of the present invention (Compound B and Compound C) were evaluated in the min mouse model to evaluate their efficacy as anti-cancer agents.
The min mouse model is a widely used model to test for this type of efficacy. The numbers of polyp formed in small intestine and colon of these mice after various treatments were measured (Table 7).

Survivin = assay: Effect on survivin expression (Table 9); format: cell-based
Text: (§3) The effects of various compounds having general formula (I) on survivin and TCF4 expression were characterized.

TCF4 = assay: Effect on TCF4 expression (Table 9); format: cell-based
Text: as §3

Row | SMILES | IC50 (SW480 cells [1]) | IC50 (HCT116 cells [2]) | GI50 (SW480 cells [3]) | GI50 (HCT116 cells [4]) | IC50 [5] | IC50 [6] | also measured
1 | C=CCN1CC(=O)N2[C@@H](Cc3ccc(OP(=O)(O)O)cc3)C(=O)N(Cc3ccc(Cl)c4cccnc34)C[C@@H]2N1C(=O)NCc1ccccc1 [Compound 7] | 12.9 µM | 12 µM | 2.2 µM | 1.8 µM | 1 µM | 2.3 µM | 
2 | C=CCN1CC(=O)N2[C@@H](Cc3ccc(OP(=O)(O)O)cc3)C(=O)N(Cc3cccc4c3N(C)CCO4)C[C@@H]2N1C(=O)NCc1ccccc1 [Compound 12] | > 50 µM | 19.3 µM | 1 µM | 1.2 µM | 0.7 µM | 1 µM | 
3 | CN1CC(=O)N2[C@@H](Cc3ccc(OP(=O)(O)O)cc3)C(=O)N(Cc3cccc4cccnc34)C[C@@H]2N1C(=O)NCc1ccccc1 [Compound 9] | > 50 µM | > 50 µM | 7.6 µM | 14.7 µM | 6 µM | 9.6 µM | 
4 | C=CCN1CC(=O)N2[C@@H](Cc3ccc(OP(=O)(O)O)cc3)C(=O)N(Cc3ccc(F)cc3F)C[C@@H]2N1C(=O)NCc1ccccc1 [Compound 8] | 21.6 µM | 23.2 µM | 2.1 µM | 1.9 µM | 0.9 µM | 1.4 µM | 
5 | C=CCN1CC(=O)N2[C@@H](Cc3ccc(O)cc3)C(=O)N(Cc3ccccc3)C[C@@H]2N1C(=O)NCc1ccccc1 [Compound E] |  |  |  |  |  |  | tube formation (HUVEC): inhibited tube formation in a dose-dependent manner
6 | CN(C)c1cc(F)c(F)cc1CN1C[C@H]2N(C(=O)CN(C)N2C(=O)NCc2ccccc2)[C@@H](Cc2ccc(OP(=O)(O)O)cc2)C1=O [Compound 14] | 21.1 µM | 16 µM | 2.3 µM | 2.1 µM | 1.2 µM | 1.7 µM | 
7 | CN1CC(=O)N2[C@@H](Cc3ccc(OP(=O)(O)O)cc3)C(=O)N(Cc3cccc4cnn(C)c34)C[C@@H]2N1C(=O)NCc1ccccc1 [Compound 5] | 34 µM | > 50 µM | 5.2 µM | 16.5 µM |  | 26 µM | 
8 | C=CCN1CC(=O)N2[C@@H](Cc3ccc(OP(=O)(O)O)cc3)C(=O)N(Cc3cccc4cccnc34)C[C@@H]2N1C(=O)NCc1ccccc1 [Compound 6] | 9.2 µM | 6.4 µM | 0.5 µM | 0.4 µM | 0.1 µM | 0.8 µM | 
9 | CN(C)c1cc(CN2C[C@H]3N(C(=O)CN(C)N3C(=O)NCc3ccccc3)[C@@H](Cc3ccc(OP(=O)(O)O)cc3)C2=O)ccc1Cl [Compound 13] | 21.1 µM | 20 µM | 2.3 µM | 1.7 µM | 0.9 µM | 1.8 µM | 
10 | CN1CC(=O)N2[C@@H](Cc3ccc(OP(=O)(O)O)cc3)C(=O)N(Cc3cccc4ccccc34)C[C@@H]2N1C(=O)NCc1ccccc1 [Compound 2] | 8.2 µM | 23.2 µM | 3.1 µM | 6.6 µM | 5.7 µM | 3.5 µM | 
11 | CN1CC(=O)N2[C@@H](Cc3ccc(O)cc3)C(=O)N(Cc3cccc4ccccc34)C[C@@H]2N1C(=O)NCc1ccccc1 [Compound A] |  |  |  |  |  |  | synergy with 5-FU in soft agar assay (SW480 cells [7]): synergism of anti-cancer activity; also recorded: synergy; LD50, soft agar assay (SW480 cells [7]; in combination with 0 μM 5-FU): 76 µM; LD50, soft agar assay (SW480 cells [7]; in combination with 1 μM 5-FU): 30 µM; LD50, soft agar assay (SW480 cells [7]; in combination with 4 μM 5-FU): 2 µM; survivin luciferase reporter activity ([5]; SW480 cells, various concentrations): inhibit expression of survivin; also recorded: inhibit the activity of a survivin luciferase reporter
12 | CN1CC(=O)N2[C@@H](Cc3ccc(O)cc3)C(=O)N(Cc3cccc4cccnc34)C[C@@H]2N1C(=O)NCc1ccccc1 [Compound B] |  |  |  |  |  |  | number of polyp compared to vehicle control mice [8]: reduce the number of polyp in min mice
13 | CN(C)c1cc(F)ccc1CN1C[C@H]2N(C(=O)CN(C)N2C(=O)NCc2ccccc2)[C@@H](Cc2ccc(OP(=O)(O)O)cc2)C1=O [Compound 3] | > 50 µM | 41.9 µM | 3 µM | 3.1 µM |  | 11.5 µM | 
14 | CN1CC(=O)N2[C@@H](Cc3ccc(OP(=O)(O)O)cc3)C(=O)N(Cc3ccc4ncsc4c3)C[C@@H]2N1C(=O)NCc1ccccc1 [Compound 11] | > 50 µM | > 50 µM | 6.5 µM | 6.3 µM | 6.7 µM | 10.3 µM | 
15 | CN1CC(=O)N2[C@@H](CN(Cc3ccc(F)cc3C(F)(F)F)C(=O)[C@@H]2Cc2ccc(O)cc2)N1C(=O)NCc1ccccc1 |  |  |  |  |  |  | inhibition at 5 µM (Survivin): 0%; inhibition at 25 µM (Survivin): 80%; IC50 (TCF4): 1.3 ± 0.1 µM
16 | CN(C)c1cccc(F)c1CN1C[C@@H]2N(C(=O)CN(C)N2C(=O)NCc2ccccc2)[C@@H](Cc2ccc(O)cc2)C1=O |  |  |  |  |  |  | inhibition at 5 µM (Survivin): 0%; inhibition at 25 µM (Survivin): 6%; IC50 (TCF4): 18.2 ± 2.4 µM
17 | CN1CC(=O)N2[C@@H](Cc3ccc(OP(=O)(O)O)cc3)C(=O)N(Cc3ccc(F)cc3F)C[C@@H]2N1C(=O)NCc1ccccc1 [Compound 4] | > 50 µM | 49.3 µM | 6.9 µM | 11.4 µM | 6.5 µM | 7.3 µM | 
18 | CN1CC(=O)N2[C@@H](Cc3ccc(O)cc3)C(=O)N(Cc3c(Cl)cc(Cl)c4cccnc34)C[C@@]2(C)N1C(=O)NCc1ccccc1 |  |  |  |  |  |  | inhibition at 5 µM (Survivin): 6%; inhibition at 25 µM (Survivin): 58%; IC50 (TCF4): 11.2 ± 1.5 µM
19 | CN(C)c1ccc(Cl)cc1CN1C[C@@H]2N(C(=O)CN(C)N2C(=O)NCc2ccccc2)[C@@H](Cc2ccc(O)cc2)C1=O |  |  |  |  |  |  | inhibition at 5 µM (Survivin): 0%; inhibition at 25 µM (Survivin): 93%; IC50 (TCF4): 2.2 ± 0.2 µM
20 | CCCN1CC(=O)N2[C@@H](Cc3ccc(OP(=O)(O)O)cc3)C(=O)N(Cc3cccc4cccnc34)C[C@@H]2N1C(=O)NCc1ccccc1 [Compound 10] | 0.4 µM | 7 µM | 0.9 µM | 0.8 µM | 1.7 µM | 2.8 µM | 
21 | CN(C)c1cc(CN2C[C@@H]3N(C(=O)CN(C)N3C(=O)NCc3ccccc3)[C@@H](Cc3ccc(O)cc3)C2=O)ccc1Cl |  |  |  |  |  |  | inhibition at 5 µM (Survivin): 0%; inhibition at 25 µM (Survivin): 92%; IC50 (TCF4): 7.3 ± 0.6 µM
